Source: patent publication US11213494B2 (priority 2016, dated 2022)

B1: BDNF: exogenous brain-derived neurotrophic factor, secreted protein, ligand of TrkB (protein, UniProt P23560 19-247, looked up)
Neurotrophic factor BDNF …: APMKEANIRGQGGLAYPGVRTHGTLESVNGPKAGSRGLTSLADTFEHVIEELLDEDQKVRPNEENNKDADLYTSRVMLSSQVPLEPPLLFLLEEYKNYLDAANMSMRVRRHSDPARRGELSVCDSISEWVTAADKKTAVDMSGGTVTVLEKVPVSKGQLKQYFYETKCNPMGYTKEGCRGIDKRHWNSQCRTTQSYVRALTMDSKKRIGWRFIRIDTSCVCTLTIKRGR

Tests used:
[1] = system: AMPA-receptors; test: Whole-cell patch-clamp recordings of nTS second-order neurons in brainstem slices; format: cell-based, mice; conditions: 10 μM in the superfusate
Experimental: Horizontal brainstem slices were prepared from 3- and 5- to 7-week-old Mecp2 Null and Wt male mice. Animals were deeply anesthetized by inhalation of isoflurane and then decapitated. Brains were removed from the skull and placed in low Ca2+, ice-cold artificial CSF (ACSF) containing the following (in mM): 125 NaCl, 3 KCl, 1.2 NaH2PO4, 1 CaCl2, 1.2 MgSO4, 2 MgCl2, 25 NaHCO3, 10 D-glucose, and 0.4 L-ascorbic acid, equilibrated to pH 7.4 with 95% O2/5% CO2, for 2-5 min. […]
Slices were placed into the recording chamber, held in place with nylon-wired grid and superfused with recording ACSF at 30-32° C. at a flow rate of 4-5 ml/min. […] Evoked, spontaneous and miniature EPSCs (eEPSCs, sPSCs, mEPSCs) were recorded from cells meeting this criterion in the whole-cell voltage-clamp configuration at a holding potential of −60 mV. […] To compare intrinsic neuronal excitability between genotypes, action-potential properties and firing frequency in response to current injection (50 pA increments) were recorded in nComm neurons as well. […]
Spontaneous and evoked postsynaptic currents were analyzed with Clampfit and Microsoft Excel. In the analysis of eEPSCs, 20 sweeps were averaged with Clampfit and the resulting eEPSC amplitudes were measured and compared between genotypes at different stimulation intensities. […]

[2] = system: TrkB; test: TrkB, AKT and ERK phosphorylation assays (Western blot) in pons and medulla; format: in vivo, mice; conditions: 50 mg/kg i.p. b.i.d. for 5 weeks
Experimental: The ratios of (1) phospho-TrkB^Y817/TrkB (full-length), phospho-ERK/ERK and phospho-AKT/AKT, (2) phospho-TrkB^Y817/actin, phospho-ERK/actin and phospho-AKT/actin, (3) TrkB (full-length)/actin, ERK/actin and AKT/actin and (4) TrkB (truncated)/actin were measured by Western blot using the ECL Chemiluminescence System (GE Healthcare). Site-specific rabbit monoclonal antiphospho-TrkB^Y817 antibody was obtained from Epitomics and rabbit polyclonal TrkB antibody was obtained from Millipore. Rabbit polyclonal ERK and AKT, mouse monoclonal phospho-ERK and phospho-AKT antibodies were obtained from Cell Signaling Technology. Tissues were homogenized in a lysis buffer (containing, in mM: 20 Tris, pH 8.0, 137 NaCl, 1% Igepal CA-630, 10% glycerol, 1 PMSF, 10 μg/ml aprotinin, 1 μg/ml leupeptin, 500 μM orthovanadate). Lysates were centrifuged at 14,000×g for 10 min, then the supernatant was collected and protein concentration was determined using the BCA Protein Assay Reagent (Pierce).
(§1) Respiratory patterns were analyzed at 8, 10, and 12 weeks after birth in unrestrained mice using whole-body plethysmography as described previously. Measurements were taken from quiet breathing periods of at least 5 min total duration, and apneas were defined as pauses in breathing greater than two times the average breath duration calculated for each animal. LM22A-4 treatment. Wt and Het littermates were divided into 4 groups: Wt vehicle-treated (100 μl of 0.9% NaCl, i.p., b.i.d.), Wt drug treated (50 mg/kg LM22A-4 in 0.9% NaCl, i.p., b.i.d.), Het vehicle-treated (100 μl of 0.9% NaCl, i.p., b.i.d.), and Het drug-treated (50 mg/kg LM22A-4 in 0.9% NaCl, i.p., b.i.d.). Each mouse was treated from 8 to 13 weeks of age. Whole-body plethysmography was performed during week 12 and animals were subsequently killed and tissues harvested for TrkB Western blots and BDNF ELISA during week 13.

[3] = system: Mecp2 Het mice; format: in vivo; conditions: 50 mg/kg i.p. twice daily for 4 weeks
Experimental: as §1
Comparison of respiratory parameters between Wt and Het animals in the initial phenotyping experiments were performed using unpaired Student's t test. Comparisons among Wt vehicle-treated, Wt drug-treated, Het vehicle-treated, and Het drug-treated groups in the LM22A-4 trials, including plethysmography and Western blots were performed using one-way ANOVA with post hoc Least Significant Difference test (LSD) for intergroup comparisons. Results were considered significant if the p-value was <0.05. Data are presented as the mean±SEM.

[4] = system: TrkB; test: Synaptic hyperexcitability in brainstem respiratory and autonomic circuits and apneic breathing in RTT mice; format: in vivo; conditions: for synaptic hyperexcitability in brainstem respiratory and autonomic circuits: acute
[5] = in vivo; parameters: species or system mice; conditions: Mecp2^tm1.1Jae heterozygous (Het), mouse, ip, 50 mg/kg, brain tissue concentration (corrected for blood contamination)
Experimental: The brain concentration of LM22A-4 (custom synthesized by Ricerca Biosciences, LLC) was evaluated in Het mice 1 h after a 50 mg/kg intraperitoneal dose using reverse-phase liquid chromatography with triple-quadrupole tandem mass spectrometric (LC-MS/MS) detection. […] Brainstem and forebrain samples were homogenized with a Virsonic 100 ultrasonic homogenizer and prepared for analysis using acetonitrile precipitation by combining one volume of sample with three volumes of acetonitrile. Samples were centrifuged and the resulting supernatant was sampled for analysis using a CTC Leap PAL autosampler (Leap Technologies) and two PerkinElmer series 200 micro pumps. Chromatography was performed at ambient temperature using a 50×2.0 mm inner diameter, 4 μm Synergi Polar-RP analytical column (Phenomenex). The aqueous mobile phase (A) was 4 mM ammonium formate, pH 3.5 and the organic mobile phase (B) was 10:90 (v/v) […] ammonium formate, pH 3.5/acetonitrile. The analyte was eluted with a gradient which changed linearly from 0 to 100% B in 3 min at a flow rate of 300 μl/min. The total run time was 4.5 min and the injection volume was 10 μl. The analyte was detected on a Sciex API 3000 triple-quadrupole mass spectrometer equipped with a TurbolonSpray interface in the positive electrospray ionization mode (Applied Biosystems/MDS). […]

[6] = Body weight and tolerability during LM22A-4 treatment; format: in vivo, mice
Experimental: as §1

| Molecule | effect on sPSCs [1] | reduction of eEPSC amplitudes ([1]; n=10) [%] | deficits in TrkB phosphorylation (p-TrkBY817/TrkB, p-TrkBY817/actin) ([2]; pons and medulla, 13-week-old Het mice) | decreases in p-AKT/AKT and p-AKT/actin ([2]; pons, Het mice) | effect of drug treatment on level of p-ERK/ERK ([2]; pons, Wt and Het mice) | levels of p-TrkB/TrkB and p-TrkB/actin vs wild-type controls ([2]; pons, drug-treated Het mice) | percentage of apneic animals [3] | Te (expiratory time) compared with Wt ([3]; 12-week-old Het mice) | Ttot (total breath duration) compared with Wt ([3]; 12-week-old Het mice) | breathing frequency compared with Wt ([3]; 12-week-old Het mice) | respiratory function, drug- vs vehicle-treated Wt mice ([3]; Wt mice) | apneic breathing in vivo [4] | synaptic hyperexcitability in brainstem respiratory and autonomic circuits [4] | concentration at 1 h ([5]; brainstem) [nM] | concentration at 1 h ([5]; forebrain) [nM] | effect on body weight ([6]; Wt or Het mice, 50 mg/kg i.p. b.i.d. throughout the treatment period) | tolerability of daily treatment ([6]; heterozygous female Mecp2 mutant mice) |
| --- | --- | --- | --- | --- | --- | --- | --- | --- | --- | --- | --- | --- | --- | --- | --- | --- | --- |
| N#Cc1cc2c(cc1[N+](=O)[O-])=NC(=O)C(=O)N=2 [6-cyano-7-nitroquinoxaline-2,3-dione] | completely abolished | 92.2±1.4 |  |  |  |  |  |  |  |  |  |  |  |  |  |  |  |
| O=C(NCCO)c1cc(C(=O)NCCO)cc(C(=O)NCCO)c1 [LM22A-4, N,N′,N″Tris(2-hydroxyethyl)-1,3,5-benzenetricarboxamide] |  |  | completely reversed | reversed | no significant effect | significantly higher | unaffected | not significantly different | not significantly different | not significantly different | no significant differences | eliminate | acutely reverse | 2.9 | 4.1 | no effect | well tolerated |
| B1 |  |  |  |  |  |  |  |  |  |  |  | eliminate | acutely reverse |  |  |  |  |
